From patent US6517846B2, “Cosmetic composition” (Kyowa Hakko Kogyo Co., Ltd., priority 2000, dated 2003)
Where a name gives a salt, the structure may show the parent alone. Read-outs that look alike come from different tables or passages of the source.

Key:
[1] = test system: human skin (forearm crook, females with roughening skin)
Protocol: A cup of 1-cm diameter was closely fixed to the skin of a forearm crook, and 0.5 ml of a solution containing 5 w/v % test compound was poured into the cup for treatment for 30 minutes. Then, the test site was washed with tepid water and wiped with a Kim wipe.
On the next day of that when the above treatment was completed, transpiration rates of water at the treated sites were measured using a TEWA meter (TM210, supplied by Nippon Eurotech Co., Ltd.)

[2] = test system: human subjects (washing hands); conditions: grades scored; 1 Very irritative, 5 Very mild; mean n = 5
Protocol: The test compounds were evaluated using the following five grades. The intermediate grade between 1 and 3 was made 2, and that between 3 and 5 was made 4. Each grade 1, 2, 3, 4, 5 was scored as −5, −1.5, 0, 1.5, and 5, respectively, and the average of the scores was calculated for each evaluation item.

[3] = test system: human skin (forearm crook, females with roughening skin); conditions: 78 hours after the first treatment on day 1, 5 w/v % solution
[4] = test system: human skin (forearm crook, females with roughening skin); test: Water content in skin after repeated cup treatment (Skicon-200); format: in vivo; conditions: for Change of water content immediately before the treatment / Change of water content immediately after the second treatment: 5 w/v % solution; for Change of water content immediately before the treatment: twice a day; for water content in the skin, tendency in words: summary of Table 3
Protocol: A cup of 1-cm diameter was closely fixed to the skin of a forearm crook, and 0.5 ml of a solution containing 5 w/v % test compound was poured into the cup for treatment for 30 minutes. Then, the test site was washed with tepid water and wiped with a Kim wipe. The skin was acclimated under a constant environment at a temperature of 20° C. and a relative humidity of 50% for 20 minutes, and then, the water content in skin was measured using Skicon-200 (supplied by IBS Corporation). The treatment was repeated twice a day and continued for 4 days to determine the change of the water content in skin. The water content in each site to be treated before the treatment on day 0 was defined as 100%, and the water content in each site treated with the test compound immediately before and after the treatment (after the second treatment) on each day was determined as a relative value (%).

[5] = test system: human normal keratinocytes; test: Cytotoxicity in human normal keratinocytes, MTT method; format: cell-based; conditions: 48 hours incubation, 1 to 10,000 ppm, pH 7, mean n = 4
Protocol: (1) A method using 3-(4,5-dimethylthiazol-2-yl)-2,5-diphenyl tetrazolium bromide (MTT method):
This is a method where the number of living cells is evaluated by determining enzyme activity related to respiratory chain present in inner membranes of mitochondria in living cells. The amount of MTT formazan produced after incorporation of MTT into cells was determined by colorimetric quantification at a wavelength of 570 nm (reference: 650 nm). [See Sugawara, et al., “Saibou Baiyou (Cell Culture) III”, 4477-4482 (1984); J. Soc. Cosmet. Chem. Jpn., 27, 498-505 (1993)].
(§1) (4) Using the above three methods for the evaluation of suppression of cytotoxicity, suppressive effects of the test compounds on cytotoxicity were determined as follows.

[6] = test system: human normal keratinocytes; test: Cytotoxicity in human normal keratinocytes, neutral red (NR) method; format: cell-based; conditions: 48 hours incubation, 1 to 10,000 ppm, pH 7, mean n = 4
Protocol: (2) Neutral red (NR) method:
NR penetrates plasma membranes and is concentrated in lysosomes in normal cells, but is not capable of being incorporated into cells with surface damages. Thus, the NR method is a method where the number of living cells is evaluated by determining the amount of NR incorporated in living cells (the absorbance at a wavelength of 540 nm was measured), and was carried out according to the NR bioassay data book of Sanko Pure Chemicals.
as §1

IL-1α = conditions: mean n = 2
Protocol: The determination of IL-1α was carried out using an IL-1α human ELISA system supplied by Amarsham.
The cells were seeded in a 25 cm^2-flask coated with collagen and cultured at 37° C. under 5% of CO2 for 6 days.
One day after the seeding, the test compounds prepared at given concentrations (1 to 10,000 ppm, pH 7) were each added to the culture and continuously incubated for 48 hours.
Also, the release of IL-1α from the cultured cells was determined by calculating IL-1α concentration in the culture media with a lapse of time.

[7] = Day 1 (0 hr.), baseline defined as 100%, 30 min
[8] = Day 1 (6 hr.), relative to pre-treatment = 100%
[9] = Day 2 (24 hr.), relative to pre-treatment = 100%
[10] = Day 2 (30 hr.), relative to pre-treatment = 100%
[11] = Day 3 (48 hr.), relative to pre-treatment = 100%
[12] = Day 3 (54 hr.), relative to pre-treatment = 100%
[13] = Day 4 (72 hr.), relative to pre-treatment = 100%
[14] = Day 4 (78 hr.), relative to pre-treatment = 100%

Row | Compound | Irritation (after use), average score [2] | Desquamation [3] | Erythema [3] | Change of water content immediately before the treatment [4, 7] | Change of water content immediately after the second treatment [4, 8] | Change of water content immediately before the treatment [4, 9] | Change of water content immediately after the second treatment [4, 10] | Change of water content immediately before the treatment [4, 11] | Change of water content immediately after the second treatment [4, 12] | Change of water content immediately before the treatment [4, 13] | Change of water content immediately after the second treatment [4, 14] | water content in the skin, tendency in words [4] | MTT, IC50 [5] | NR, IC50 [6] | further results
1 | CCCCCCCCCCCC(=O)NCCC(=O)O [LBA, sodium salt of lauroyl β-alanine] | 1.5 | A little | None | 100% | 113% | 88% | 82% | 104% | 104% | 93% | 101% | no effect on the water content was observed | 35 ppm | 33 ppm | water transpiration rate, in words ([1]; summary of Table 5): lowest; Desquamation ([3]; listed as lauroyl β-alanine): lowest
2 | Triethanolamine N-Cocoyl-L-glutaminate [GMT] |  |  |  | 100% | 124% | 135% | 126% | 168% | 128% | 140% | 120% | tendency to increase with a lapse of time | 70 ppm | 53 ppm | 
3 | triethanolamine N-cocoyl glutamate [GAT] | 1.2 | Somewhat aggravated | None | 100% | 88% | 97% | 76% | 111% | 78% | 80% | 73% | tendency to decrease immediately after the treatment | 60 ppm | 48 ppm | Relative water transpiration rates ([1]; next day after the 4-day treatment, Control = 100, mean n = 4): 138%; Desquamation ([3]; listed as N-cocoyl-L-glutamate): much desquamation; IL-1α (IL-1α; 10 ppm test compound): 172.16 pg/well; IL-1α (IL-1α; 30 ppm test compound): 216.18 pg/well; IL-1α (IL-1α; 60 ppm test compound): 333.05 pg/well; IL-1α (IL-1α; 100 ppm test compound): 313.78 pg/well; IL-1α (IL-1α; 300 ppm test compound): 269.13 pg/well
